# Test results: patent publication US11746087B1, “C4-carboxylic acid-substituted tryptamine derivatives and methods of using” (priority 2022, dated 2023)
# Read-outs that look alike come from different tables or passages of the source.
# What was measured:
# [1] = Mouse PK study (IV and PO), plasma parent compound and psilocin by LC-MS/MS; type: in vivo; settings: male, C57Bl/6, mouse, plasma; for C0: read-out: C0; for Vd: read-out: Vss
# Excerpt: Briefly, the procedure was as follows. […] 19, 2022.
# [2] = molecular target: T1, ADRA2A (Homo sapiens, UniProt P08913); test: EFC-based cAMP secondary messenger assay, agonist mode; type: cell-based
# T1 sequence (P08913 1-465): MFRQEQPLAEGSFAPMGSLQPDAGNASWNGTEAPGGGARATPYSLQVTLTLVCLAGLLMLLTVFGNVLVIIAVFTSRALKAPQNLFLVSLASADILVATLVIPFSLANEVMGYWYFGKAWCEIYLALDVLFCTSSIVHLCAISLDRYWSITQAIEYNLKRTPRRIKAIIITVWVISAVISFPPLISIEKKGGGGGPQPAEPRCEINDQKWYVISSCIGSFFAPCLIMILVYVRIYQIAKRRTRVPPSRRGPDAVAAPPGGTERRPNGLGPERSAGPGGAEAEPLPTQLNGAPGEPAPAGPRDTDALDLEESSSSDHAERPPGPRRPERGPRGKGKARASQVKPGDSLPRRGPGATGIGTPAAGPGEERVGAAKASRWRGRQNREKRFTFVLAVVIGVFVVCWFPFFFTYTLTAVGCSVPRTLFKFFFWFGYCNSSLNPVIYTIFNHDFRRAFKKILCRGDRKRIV
# [3] = molecular target: AVPR1A (Homo sapiens, UniProt P37288); test: Calcium secondary messenger assay, agonist mode; type: cell-based
# [4] = molecular target: DRD1 (Homo sapiens, UniProt P21728); test: EFC-based cAMP secondary messenger assay, agonist mode; type: cell-based
# [5] = molecular target: T2, HTR3A (5-HT3A) (Homo sapiens, UniProt P46098); test: Ion channel assay (FLIPR membrane potential), blocker; type: cell-based
# T2 sequence (P46098 24-478): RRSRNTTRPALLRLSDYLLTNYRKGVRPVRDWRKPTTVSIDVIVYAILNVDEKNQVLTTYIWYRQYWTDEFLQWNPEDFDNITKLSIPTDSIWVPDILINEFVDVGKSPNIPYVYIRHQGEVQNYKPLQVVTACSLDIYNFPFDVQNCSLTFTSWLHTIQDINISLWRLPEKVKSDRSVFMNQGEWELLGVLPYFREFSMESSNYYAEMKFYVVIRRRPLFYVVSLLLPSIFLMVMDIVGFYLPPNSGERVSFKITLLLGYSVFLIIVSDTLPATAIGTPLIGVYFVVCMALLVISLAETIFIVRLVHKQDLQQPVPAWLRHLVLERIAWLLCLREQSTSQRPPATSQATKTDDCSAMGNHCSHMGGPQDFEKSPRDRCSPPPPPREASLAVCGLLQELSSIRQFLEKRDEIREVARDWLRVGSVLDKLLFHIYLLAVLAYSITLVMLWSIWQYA
# [6] = intravenous, 1 mg/kg, 1 mg/kg i.v. C(XX), per animal, BLQ <0.25 ng/mL, read-out: Plasma concentration of C(XX)
# [7] = iv, 1 mg/kg, C(XX) in plasma, 1 mg/kg i.v. C(XX), Mean ± SD
# [8] = iv, 1 mg/kg, C(XX) in plasma, 1 mg/kg i.v. C(XX), per animal
# [9] = oral, 1 mg/kg, 1 mg/kg oral C(XX), Mean ± SD, read-out: Plasma concentration of C(XX)
# [10] = oral, 1 mg/kg, 1 mg/kg oral C(XX), per animal, BLQ <0.25 ng/mL, read-out: Plasma concentration of C(XX)
# [11] = oral, 3 mg/kg, 3 mg/kg oral C(XX), Mean ± SD, read-out: Plasma concentration of C(XX)
# [12] = oral, 3 mg/kg, 3 mg/kg oral C(XX), per animal, BLQ <0.25 ng/mL, read-out: Plasma concentration of C(XX)
# [13] = oral, 10 mg/kg, 10 mg/kg oral C(XX), Mean ± SD, read-out: Plasma concentration of C(XX)
# [14] = oral, 10 mg/kg, 10 mg/kg oral C(XX), per animal, BLQ <0.25 ng/mL, read-out: Plasma concentration of C(XX)
# [15] = oral, 10 mg/kg, 10 mg/kg oral C(XX), mean (n = 2), read-out: Plasma concentration of C(XX)
# Chain of AVPR1A (P37288 whole entry): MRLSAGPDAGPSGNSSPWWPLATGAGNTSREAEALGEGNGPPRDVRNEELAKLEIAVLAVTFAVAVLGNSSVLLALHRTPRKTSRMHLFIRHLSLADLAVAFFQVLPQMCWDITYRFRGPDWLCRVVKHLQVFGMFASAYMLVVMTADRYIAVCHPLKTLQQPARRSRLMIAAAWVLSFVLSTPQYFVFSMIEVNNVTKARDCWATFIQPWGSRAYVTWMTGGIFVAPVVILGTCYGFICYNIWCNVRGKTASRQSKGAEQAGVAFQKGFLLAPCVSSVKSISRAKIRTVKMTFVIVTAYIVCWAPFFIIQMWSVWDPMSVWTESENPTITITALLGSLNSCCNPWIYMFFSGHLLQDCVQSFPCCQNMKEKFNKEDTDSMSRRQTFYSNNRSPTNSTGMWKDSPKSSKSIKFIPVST
# Chain of DRD1 (P21728 whole entry): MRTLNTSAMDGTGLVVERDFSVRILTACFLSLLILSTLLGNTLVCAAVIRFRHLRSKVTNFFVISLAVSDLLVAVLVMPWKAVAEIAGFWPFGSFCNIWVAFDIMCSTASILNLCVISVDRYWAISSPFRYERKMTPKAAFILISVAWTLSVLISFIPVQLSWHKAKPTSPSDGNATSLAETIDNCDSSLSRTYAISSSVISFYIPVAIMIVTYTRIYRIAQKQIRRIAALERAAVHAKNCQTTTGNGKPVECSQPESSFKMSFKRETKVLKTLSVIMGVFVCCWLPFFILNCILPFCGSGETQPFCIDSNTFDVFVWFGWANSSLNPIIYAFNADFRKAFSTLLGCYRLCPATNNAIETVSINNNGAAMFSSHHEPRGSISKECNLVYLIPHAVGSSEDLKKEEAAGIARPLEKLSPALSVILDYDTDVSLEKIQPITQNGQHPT
smiles,measurement,setting,value
CN(C)CCc1c[nH]c2cccc(OC(=O)c3cccc4c3OCCO4)c12 [C(XX)],concentration at 2 h,[1]; [6],0.968 ng/mL
same,concentration at 4 h,"[1]; intravenous, 1 mg/kg, 1 mg/kg i.v. C(XX), Mean ± SD, read-out: Plasma concentration of C(XX)",0.181 ± 0.0663 ng/mL
same,concentration at 4 h,[1]; [6],0.257 ng/mL
same,half-life,"[1]; iv, 1 mg/kg, 1 mg/kg i.v. C(XX), mean ± SD, read-out: Apparent t1/2 of C(XX) in plasma (converted)",33.8 min
same,clearance,[1]; [7],320 mL/min/kg
same,AUC(0-inf),"[1]; iv, 1 mg/kg, C(XX) in plasma, 1 mg/kg i.v. C(XX), Mean ± SD, read-out: AUC0-inf",53 ± 8.26 ng·h/mL
same,AUC(0-t),"[1]; iv, 1 mg/kg, C(XX) in plasma, 1 mg/kg i.v. C(XX), Mean ± SD, read-out: AUC0-tlast",52.8 ± 8.3 ng·h/mL
same,half-life,"[1]; iv, 1 mg/kg, C(XX) in plasma, 1 mg/kg i.v. C(XX), Mean ± SD, read-out: Apparent t1/2 (converted)",33.8 ± 3.23 min
same,C0,[1]; [7],161 ± 37.3 ng/mL
same,MRT inf,"[1]; iv, 1 mg/kg, C(XX) in plasma, 1 mg/kg i.v. C(XX), Mean ± SD, read-out: MRT0-inf",24.7 ± 2.27 min
same,Vd,[1]; [7],7.94 ± 1.79 L/kg
same,clearance,[1]; [8],345 mL/min/kg
same,AUC(0-inf),"[1]; iv, 1 mg/kg, C(XX) in plasma, 1 mg/kg i.v. C(XX), per animal, read-out: AUC0-inf",48.3 ng·h/mL
same,AUC(0-t),"[1]; iv, 1 mg/kg, C(XX) in plasma, 1 mg/kg i.v. C(XX), per animal, read-out: AUC0-tlast",48.1 ng·h/mL
same,half-life,"[1]; iv, 1 mg/kg, C(XX) in plasma, 1 mg/kg i.v. C(XX), per animal, read-out: Apparent t1/2 (converted)",37.5 min
same,C0,[1]; [8],140 ng/mL
same,MRT inf,"[1]; iv, 1 mg/kg, C(XX) in plasma, 1 mg/kg i.v. C(XX), per animal, read-out: MRT0-inf",26.2 min
same,Vd,[1]; [8],9.03 L/kg
same,concentration at 0.25 h,[1]; [9],0.603 ± 0.127 ng/mL
same,concentration at 0.25 h,[1]; [10],0.701 ng/mL
same,concentration at 0.5 h,[1]; [9],0.62 ± 0.0996 ng/mL
same,concentration at 0.5 h,[1]; [10],0.702 ng/mL
same,concentration at 1 h,[1]; [9],0.294 ± 0.0987 ng/mL
same,concentration at 1 h,[1]; [10],0.396 ng/mL
same,concentration at 0.25 h,[1]; [11],1.71 ± 0.22 ng/mL
same,concentration at 0.25 h,[1]; [12],1.49 ng/mL
same,concentration at 0.5 h,[1]; [11],1.34 ± 0.179 ng/mL
same,concentration at 0.5 h,[1]; [12],1.45 ng/mL
same,concentration at 1 h,[1]; [11],0.572 ± 0.164 ng/mL
same,concentration at 1 h,[1]; [12],0.43 ng/mL
same,concentration at 2 h,[1]; [11],0.175 ± 0.0621 ng/mL
same,concentration at 2 h,[1]; [12],0.124 ng/mL
same,concentration at 0.25 h,[1]; [13],7.47 ± 3.92 ng/mL
same,concentration at 0.5 h,[1]; [13],4.15 ± 1.52 ng/mL
same,concentration at 1 h,[1]; [13],1.99 ± 0.657 ng/mL
same,concentration at 1 h,[1]; [14],1.53 ng/mL
same,concentration at 2 h,[1]; [13],0.773 ± 0.279 ng/mL
same,concentration at 4 h,[1]; [15],0.264 ng/mL
same,concentration at 4 h,[1]; [14],0.225 ng/mL
same,concentration at 6 h,"[1]; oral, 10 mg/kg, 10 mg/kg oral C(XX), 6 h, mean (n = 2), read-out: Plasma concentration of C(XX)",0.36 ng/mL
same,concentration at 8 h,[1]; [15],0.26 ng/mL
same,concentration at 8 h,[1]; [14],0.335 ng/mL
same,Cmax,"[1]; po, 1 mg/kg, C(XX) in plasma, 1 mg/kg oral C(XX), Mean ± SD, read-out: Cmax",0.62 ± 0.0996 ng/mL
same,Tmax,"[1]; po, 1 mg/kg, C(XX) in plasma, 1 mg/kg oral C(XX), Mean ± SD, read-out: tmax",25 ± 8.64 min
same,Cmax,"[1]; po, 1 mg/kg, C(XX) in plasma, 1 mg/kg oral C(XX), per animal, read-out: Cmax",0.702 ng/mL
same,Tmax,"[1]; po, 1 mg/kg, C(XX) in plasma, 1 mg/kg oral C(XX), per animal, read-out: tmax",30 min
same,half-life,"[1]; po, 3 mg/kg, 3 mg/kg p.o. C(XX), mean ± SD, read-out: Apparent t1/2 of C(XX) in plasma (converted)",31.7 min
same,AUC(0-inf),"[1]; po, 3 mg/kg, C(XX) in plasma, 3 mg/kg oral C(XX), Mean ± SD, read-out: AUC0-inf",1.51 ± 0.21 ng·h/mL
same,AUC(0-t),"[1]; po, 3 mg/kg, C(XX) in plasma, 3 mg/kg oral C(XX), Mean ± SD, read-out: AUC0-tlast",1.37 ± 0.137 ng·h/mL
same,half-life,"[1]; po, 3 mg/kg, C(XX) in plasma, 3 mg/kg oral C(XX), Mean ± SD, read-out: Apparent t1/2 (converted)",31.7 ± 7.38 min
same,Cmax,"[1]; po, 3 mg/kg, C(XX) in plasma, 3 mg/kg oral C(XX), Mean ± SD, read-out: Cmax",1.71 ± 0.22 ng/mL
same,MRT inf,"[1]; po, 3 mg/kg, C(XX) in plasma, 3 mg/kg oral C(XX), Mean ± SD, read-out: MRT0-inf",53.9 ± 9.48 min
same,Tmax,"[1]; po, 3 mg/kg, C(XX) in plasma, 3 mg/kg oral C(XX), Mean ± SD, read-out: tmax",15 min
same,AUC(0-inf),"[1]; po, 3 mg/kg, C(XX) in plasma, 3 mg/kg oral C(XX), per animal, read-out: AUC0-inf",1.3 ng·h/mL
same,AUC(0-t),"[1]; po, 3 mg/kg, C(XX) in plasma, 3 mg/kg oral C(XX), per animal, read-out: AUC0-tlast",1.22 ng·h/mL
same,half-life,"[1]; po, 3 mg/kg, C(XX) in plasma, 3 mg/kg oral C(XX), per animal, read-out: Apparent t1/2 (converted)",26.3 min
same,Cmax,"[1]; po, 3 mg/kg, C(XX) in plasma, 3 mg/kg oral C(XX), per animal, read-out: Cmax",1.49 ng/mL
same,MRT inf,"[1]; po, 3 mg/kg, C(XX) in plasma, 3 mg/kg oral C(XX), per animal, read-out: MRT0-inf",47.6 min
same,Tmax,"[1]; po, 3 mg/kg, C(XX) in plasma, 3 mg/kg oral C(XX), per animal, read-out: tmax",15 min
same,AUC(0-inf),"[1]; po, 10 mg/kg, 10 mg/kg oral C(XX), individual animals, read-out: AUC0-inf of C(XX) in plasma",5.4 ng·h/mL
same,AUC(0-t),"[1]; po, 10 mg/kg, 10 mg/kg oral C(XX), individual animals, read-out: AUC0-tlast of C(XX) in plasma",5.65 ng·h/mL
same,Tmax,"[1]; po, 10 mg/kg, 10 mg/kg oral C(XX), individual animals, read-out: tmax of C(XX) in plasma",15 min
same,AUC(0-inf),"[1]; po, 10 mg/kg, 10 mg/kg oral C(XX), mean (n = 2), read-out: AUC0-inf of C(XX) in plasma",8.03 ng·h/mL
same,half-life,"[1]; po, 10 mg/kg, 10 mg/kg oral C(XX), mean (n = 2), read-out: Apparent t1/2 of C(XX) in plasma (converted)",186 min
same,MRT inf,"[1]; po, 10 mg/kg, 10 mg/kg oral C(XX), mean (n = 2), read-out: MRT0-inf of C(XX) in plasma",131 min
same,AUC(0-t),"[1]; po, 10 mg/kg, 10 mg/kg oral C(XX), mean ± SD, read-out: AUC0-tlast of C(XX) in plasma",6.6 ± 2.24 ng·h/mL
same,Cmax,"[1]; po, 10 mg/kg, 10 mg/kg oral C(XX), mean ± SD, read-out: Cmax of C(XX) in plasma",7.47 ± 3.92 ng/mL
same,Tmax,"[1]; po, 10 mg/kg, 10 mg/kg oral C(XX), mean ± SD, read-out: tmax of C(XX) in plasma",15 min
same,EC50,[2],> 100 µM
same,EC50,[3],> 100 µM
same,EC50,[4],> 100 µM
same,IC50,[5],3.77 µM
